Series [1] has as its system T1 lipase. As to the kind of experiment: Lipase stability test: residual activity of T1 lipase after incubation with detergent components. Particulars: for Stability of T1 lipase in the component (in words): incubation in 0.2% (w/v) component, 60° C., 30 min. In kind it is biochemical, Geobacillus zalihae strain T1. On the procedure: The compatibility of the T1 lipase with the other components of the formulated detergent was evaluated by incubating the enzyme in 0.2% (w/v) of those components, i.e., surfactants, bleaches, and alkalinity agents in a water bath (Protech, Malaysia) at 60° C. for 30 min. After 30 min, the enzyme was assayed for its residual activity.
J Am Oil Chem Soc. 63(1): p. 89-92]. A cupric acetate pyridine reagent was prepared by mixing 5% (w/v) copper (II) acetate with DI water and adjusting the solution pH to 6.1 with pyridine. The substrate emulsion used consisted of olive oil/50 mM of Glycine-NaOH buffer at pH 9.0 (1:1), which was homogenized using a homogenizer (Heidolph, Germany). […] After 30 min, the reaction was stopped by adding 5 ml isooctane and 1 ml 6 N HCl, and the mixture was vortexed for 30 s and left for 15 min. 4 ml of the upper layer of the mixture, which contained the fatty acids, was transferred to a test tube containing 1 ml of the cupric acetate pyridine reagent, and the mixture was vortexed for 30 s and left for 1 hour. The color of the solution was then evaluated colorimetrically by reading the OD using the Ultraspec 2100 Pro spectrophotometer (Amersham Bioscience, Sweden) at 715 nm. All assays were done in triplicates. 1 unit (U) of lipase activity was defined as the rate of 1 μmol of fatty acid released per minute under standard assay conditions.

Series [2] is described as follows: Resulting pH of the alkalinity agents in solution. In kind it is physicochemical. As to conditions: resulting pH of the alkalinity agent in solution.
Setting [3] is: T1 lipase residual activity after 30 min at 60° C. in 0.2% (w/v) surfactant or bleach, w/o control = 100.
Setting [4] is: T1 lipase residual activity after 30 min at 60° C. in 0.2% (w/v) alkalinity agent, Glycine-NaOH control = 100.

Consider `O=C([O-])[O-].O=C([O-])[O-].OO.OO.OO.[Na+].[Na+].[Na+].[Na+]` [Sodium percarbonate, sodium percarbonate], for which the “Relative activity (%)” value in series [1] (setting [3]) was determined as 0.3%. Besides, the “Stability of T1 lipase in the component (in words)” value (from here on “Stability of T1 lipase”) in series [1] is listed as “strongly destabilized”.
On the same counts, the results for `CCCCCCCCCCCCCCCC[N+](C)(C)C.[Br-]` [CTAB, cetyl trimethylammonium bromide] are 1.9% and “strongly destabilized”.
In turn, `O=C([O-])O.[Na+]` [Sodium bicarbonate, sodium bicarbonate] showed a pH in series [2] of 8.63. In addition, in series [1] (setting [4]), the “Relative activity (%)” value is given as 94%.
For `O=P(O)(O)OP(=O)(O)OP(=O)(O)O` [Sodium tripolyphosphate, sodium tripolyphosphate], in series [2], the pH turned out to be 9.60. In addition, in series [1] (setting [4]), the “Relative activity (%)” value is listed as 0%. In addition, the “Stability of T1 lipase” value in series [1] is on record as “lowest residual activities”.
As to `O=C([O-])[O-].[Na+].[Na+]` [Sodium carbonate, sodium carbonate], the pH in series [2] is 10.84. The “Relative activity (%)” value in series [1] (setting [4]) amounted to 1%. Also, the figures for the “Stability of T1 lipase” value in series [1] and in series [1] (listed as carbonate) were “lowest residual activities” and “greatly destabilized”, respectively.
For the compound `CCCCCCCCCCCCOS(=O)(=O)[O-].[Na+]` [SDS, sodium dodecyl sulfate], the “Relative activity (%)” value in series [1] (setting [3]) is 14%. Further, in series [1], the “Stability of T1 lipase” value is “destabilized”.
Consider Polyethylene glycol 300 [PEG 300], for which, in series [1] (setting [3]), the “Relative activity (%)” value is 61%.
For the compound `CCCCCCCC/C=C\CCCCCCCC(=O)OCCOCC(OCCO)C1OCC(OCCO)C1OCCO` (centres unmarked) [Tween 80, polysorbate 80], in series [1] (setting [3]), the “Relative activity (%)” value was determined as 98%. For the same compound, the “Stability of T1 lipase” value in series [1] was “highest stability”.
As for `O=C([O-])CC(O)(CC(=O)[O-])C(=O)[O-].[Na+].[Na+].[Na+]` [Sodium citrate, sodium citrate], the pH in series [2] turned out to be 8.30. The “Relative activity (%)” value in series [1] (setting [4]) was found to be 48%. In addition, the “Stability of T1 lipase” value in series [1] is on record as “did not greatly affect the stability”.
As to sodium perborate, the “Relative activity (%)” value in series [1] (setting [3]) is given as 3.4%. For the same compound, the “Stability of T1 lipase” value in series [1] was “strongly destabilized”.

The values above are taken from patent US10196588B2, “Detergent formulation for dishwashing machine” (Universiti Putra Malaysia (UPM), priority 2012, dated 2019).
